From PubChem BioAssay (NCI)
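Grown in 96-well plates, cells were treated for 48 hours with each compound at five concentrations. Insufficient inhibition: endpoint recorded as highest concentration tested. Here, GI50 denotes the concentration required for 50% inhibition of growth. TGI marks complete inhibition of growth.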

How the values were obtained:
Experiment in all cases: growth of human tumour cells (NCI), 48 h
[1] = system: TK-10 renal
[2] = system: NCI-H522 lung
[3] = system: NCI-H460 lung
[4] = system: SK-MEL-5 melanoma
[5] = system: MDA-MB-435
[6] = system: UO-31 renal
[7] = system: NCI-H226 lung
[8] = system: RXF 393 renal

SMILES	GI50 [1] [µM]	TGI [1] [µM]	GI50 [2] [µM]	TGI [2] [µM]	GI50 [3] [µM]	TGI [3] [µM]	GI50 [4] [µM]	TGI [4] [µM]	GI50 [5] [µM]	TGI [5] [µM]	GI50 [6] [µM]	TGI [6] [µM]	GI50 [7] [µM]	TGI [7] [µM]	GI50 [8] [µM]	TGI [8] [µM]
Cc1[nH]c2ccccc2c1CO	21	67.1	12.8	28.9	16.9	31.6	18.1	36.9	16.8	36.6	10.9	31.7	25.8	93.9	20.2	47.6
CCOc1ccc(-c2nc3ccc(-c4nc5ccc(N6CCN(C)CC6)cc5[nH]4)cc3[nH]2)cc1	1.05	2.24	0.09	0.442	0.489	1.67	0.0761	1.42	0.69	2.8	2.54	7.7	0.648	2.25	–	–
CCOC(=O)Cc1csc(NC(=O)C(OC(=O)c2ccc(Cl)cc2)c2ccccc2)n1 (configuration not stated)	> 100	> 100	46	> 100	36.1	> 100	18	36	28.1	75.6	47.1	> 100	54.4	> 100	28.6	95.8
Cc1ccc(-c2cc(C(=O)Nc3ccc(S(=O)(=O)N4CCCCC4)cc3)[nH]n2)c(O)c1	> 100	> 100	> 100	> 100	> 100	> 100	> 100	> 100	> 100	> 100	> 100	> 100	> 100	> 100	> 100	> 100
Cn1cnc([N+](=O)[O-])c1S(=O)(=O)Oc1ccc(Cl)cc1	27.8	> 100	1.82	4.22	32.3	> 100	15.7	32.3	16.2	36.2	2.36	8.75	18.6	58	2.77	8.01
Oc1nc(N2CCOCC2)sc1/C=C1\C=Nc2ccccc21	> 100	> 100	> 100	> 100	> 100	> 100	> 100	> 100	> 100	> 100	> 100	> 100	> 100	> 100	> 100	> 100
COc1cc(CSc2nc3ccc(Cl)cc3c(=O)n2Cc2ccccc2)cc(OC)c1OC	10.3	51.8	0.652	4.54	3.33	> 100	2.41	17.1	0.406	11.6	4.4	> 100	12.3	> 100	3.15	13.4
N#Cc1c(N)nc2c(c1-c1ccc(Cl)cc1)COc1ccc(F)cc1-2	34.7	> 100	23	59.5	37.1	> 100	20.6	37.6	20.7	45.2	13.8	39.2	–	–	20.3	> 100
ClCc1ccccc1Cn1cnc2nc(Cl)nc(Cl)c21	13.5	29.8	2.94	7.17	2.09	> 24.3	0.369	0.997	6.04	13.2	1.26	2.52	1.18	9.52	–	2.94
COC(=O)c1c2c(c(C)[n+]([O-])c1C)C(=O)C(NCc1ccccc1)=CC2=O	4.48	18.7	2.45	7.62	2.74	10.9	1.23	2.5	1.81	3.3	2.9	10.1	2.81	9.9	2.48	7.88
OCc1ccc(-c2nc(-c3ccc4c(c3)OCO4)c(-c3ccccn3)[nH]2)cc1	> 25	> 25	> 25	> 25	> 20.9	> 25	> 20	> 25	> 25	> 25	> 23.6	> 25	> 25	> 25	> 16.5	> 25
Clc1ccc(-c2cnc3c(-c4ccnc(N5CCNCC5)c4)cnn3c2)cc1	1.99	3.43	2.37	5.89	1.89	3.53	1.79	3.22	1.89	3.72	1.61	3.59	21.4	44.7	2.09	3.72
Oc1ccc(N=Nc2ccc(Br)cc2)c(O)c1	4.95	24.8	1.74	6.53	3.29	21.5	3.85	21.6	1.25	3.65	2.27	15.6	7.91	42.9	1.19	9.56
CCOC(=O)c1c(NN2CCN(CC(F)(F)F)CC2)oc(/C=C2\C=Nc3ncccc32)c1O	3.37	24	1.05	11.1	3.49	20.2	2.55	10.6	3.36	16.8	5.11	28.9	1.73	27	1.2	4.19
Nc1nc(-c2cccnc2)cc(-c2cc(-c3cccnc3)nc(N)n2)n1	–	> 100	–	> 100	–	> 100	–	> 100	–	> 100	–	> 100	–	> 100	–	> 100
